Results from patent US5231082A, “Cyclic peptide with anti-metastasis activity” (Monsanto Company, priority 1989, dated 1993).
Peptide text beside a SMILES is read from it.

Assays:
[1] = test system: HT-1080 cells; assay: In vitro cell attachment assays; assay type: cell-based, human
Procedure: HT-1080 cells from a human fibrosarcoma (Rasheed, S. et al., Cancer (Philadelphia) 33:1027 (1974) are maintained in Dulbecco's modified Eagle's medium (DMEM) supplemented with 10% fetal calf serum. After the cells are grown to 80% confluency, they are washed with 0.02M phosphate buffer, pH 7.4, without CA^+2 and Mg^+2 and detached with a solution of 0.025% trypsin plus 0.025% ethylenediaminetetraacetic acid (EDTA; GIBCO). The cells are then pelleted by low speed centrifugation and resuspended in Eagle's minimal essential medium (EMEM) containing 0.02% bovine serum albumin (BSA, Sigma Chemical Co., St. Louis, Mo.). Cell attachment assays are performed as described in Klebe, R.J. Nature (London) 250:248 (1974), on tissue culture plastic substrates by using 16-mm Falcon tissue culture wells (Fisher Scientific Co., Pittsburg, Pa.) incubated with various peptides or with laminin in lmL of EMEM containing 0.02% BSA for 1 or 2 hours at 37° C. Cells (10^5 in 0.1 mL) are added to the wells, and the solution is incubated for an additional 1 hour at 37° C. in 95% air and 5% CO2. Subsequently, the wells are rinsed 3 times with lmL of phosphate-buffered saline (PBS) to remove unattached cells. Attached cells are trypsinized and counted electronically (Coulter, ZBI). […]

[2] = test system: B16F10 melanoma cells; assay: Lung tumor colonization assay; assay type: in vivo, mice
Procedure: B16F10 melanoma cells, obtained from I.J. Fidler, M.D., Anderson Hospital, Houston, TX, are propagated under standard culture conditions. The lung tumor colonization assay is carried out as described in Fidler, I.J., Nature (London) (New Biol.) 242:148 (1973). Peptides are dissolved at 5 mg/mL in PBS and are filter-sterilized. The suspension of B16F10 cells (5×10^5) in 0.1 mL of DMEM is mixed with 0.1 mL of the peptide (or .1 ml PBS in control), incubated for 5 minutes at room temperature, and then injected into the tail vein of syngeneic C57BL/6 female mice (Jackson Labs., Bar Harbor, Me.) at 6 weeks of age. Each treatment and control group consists of eight mice. Three weeks after the injections, the mice are killed and the number of pulmonary tumors on the surface of the lungs counted.

[3] = test system: 67 kd laminin receptor; assay: Laminin receptor binding / elution from laminin affinity columns

CC[C@H](C)[C@@H]1NC(=O)[C@H](Cc2ccc(O)cc2)NC(=O)[C@@H](CCCNC(=N)N)NC(=O)[C@H](CO)NC(=O)CNC1=O [cyclic peptide of the invention] (HELM PEPTIDE1{G.S.[dR].Y.I}$PEPTIDE1,PEPTIDE1,1:R1-5:R2$$$V2.0)
affinity for cell adhesion ([1]; HT-1080 cells, compared with the straight chain peptide, FIG. 1): higher affinity for cell adhesion than the straight chain peptide
blocking of cell adhesion and laminin-mediated adhesion ([1]; summary statement): blocks cell adhesion, laminin-mediated adhesion
in vivo antimetastatic effectiveness (number of pulmonary tumors on the surface of the lungs) ([2]; B16F10 cells mixed with peptide, injected into tail vein of C57BL/6 female mice, counted three weeks after injection, compared with linear YIGSR-NH2, FIG. 2): at least twice as effective as linear YIGSR-NH2
melanoma cell colonization ([2]; summary statement): blocks
elution of laminin receptor from laminin affinity columns [3]: elutes the laminin receptor from laminin affinity columns
binding of laminin receptor ([3]; 67 kd laminin receptor): binds the 67 kd laminin receptor
